Data as given in US9555077B2 (UNIVERSITY OF MIYAZAKI, priority 2011, dated 2017).

Key:
[1] = system: rats with the normal body temperature; assay: Hypothermic effect of desacyl ghrelin in rats with normal body temperature (back/tail surface temperature by thermography); assay type: in vivo, rat; details: male Wistar rats
Protocol: Male Wistar rats (9 to 10 weeks old) were used as experimental animals.
The administration to the animals was performed by a single dose of intraperitoneal or intracerebroventricular injection. The dose was 3 nmol/rat for intraperitoneal administration and 0.5 nmol/rat for intracerebroventricular administration, regardless of the weight of the animals. The weight of the rats varied from 350.2 to 375.8 g.
The back or tail surface temperature of the animals was measured for 1 hour at intervals of 1 minute by thermography using FLIR SC620 (software name: FLIR Rsearch IR) made by FLIR Systems Inc. The body temperature values measured by thermography are shown as increase and decrease from the zero reference point obtained by measurement of the body temperature for 10 minutes prior to the intraperitoneal injection.
The laboratory was maintained at room temperature and the rats were carried thereinto. […] As another control, 200 μl/rat of physiological saline was intraperitoneally injected to the rats.
As a control, 0.5 nmol/rat of the rat-derived ghrelin was intracerebroventricularly administered the rats. As another control, 200 μl/rat of physiological saline was intracerebroventricularly administered to the rats.
The back and tail surface temperatures were measured by thermography in this Example.

rats with hyperthermia = assay: Suppressive effect of desacyl ghrelin against body temperature increase in rats with hyperthermia (rectal temperature, survival); assay type: in vivo, rat
Protocol: The rectal temperature was measured with a small animal body temperature controller ATC-101B made by Unique Medical Co., Ltd.
The life or death of each animal was determined in a comprehensive manner based on changes in the heart rate, respiratory rate, and body temperature, the amount of activity, the response to a physical stimulation, etc.
This experiment was performed in the same manner as in Example 1 unless otherwise stated.
While maintaining the air temperature in the laboratory at 33 to 35° C., the humidity was increased from 30% (at the beginning of the experiment) to 75% (at the end of the experiment), and thus the laboratory conditions were gradually changed to high temperature and high humidity conditions. The rats were then carried into the laboratory. The rats were housed in a plastic cage in groups of three each. […] As a control, 200 μl/rat of physiological saline was intraperitoneally injected to the rats.
At the elapsed time of 110 minutes (80 minutes after the intraperitoneal injection), the rats were transferred from the laboratory to room temperature.
At the elapsed time of 130 minutes (100 minutes after the intraperitoneal injection), the life or death of each rat was determined by visual observation and palpation.
The body temperature was measured at the rectum in this Example.

[2] = system: secretion of growth hormone (GH) from the pituitary gland; details: Broglio et al. 2004; cited from earlier work

Substance: desacyl ghrelin
- hypothermic effect in back surface temperature compared with ghrelin-administered group ([1]; 0.5 nmol/rat intracerebroventricular, 10 to 30 minutes after injection (FIG. 3)): higher hypothermic effect
- heat dissipation effect compared with ghrelin ([1]; 3 nmol/rat intraperitoneal, tail surface temperature (FIG. 2)): more excellent than that of ghrelin
- tail surface temperature ([1]; 3 nmol/rat intraperitoneal, thermography (FIG. 2)): increased
- back surface temperature, lower than that of the physiological-saline administered group ([1]; room temperature, 3 nmol/rat intraperitoneal, 5 to 60 minutes after injection, thermography (FIG. 1)): 0.3 to 0.8 °C
- survival (life or death of each rat) (rats with hyperthermia; elapsed time 130 minutes (100 minutes after 10 nmol/rat i.p.), three rats per group, two of three control rats died): all the three rats in the desacyl ghrelin-administered group survived
- Body temperature of rats (rats with hyperthermia; rectal, elapsed time 0 minutes at 33 to 35° C. (before the injection)): 36.1 ± 0.1 °C
- body temperature, lower than that of the physiological saline-administered group (rats with hyperthermia; rectal, elapsed time 50 to 110 minutes (20 to 80 minutes after 10 nmol/rat i.p.), p<0.05 or 0.01): 0.3 to 1.2 °C
- Body temperature of rats (rats with hyperthermia; rectal, elapsed time 10 minutes (before the injection)): 37.0 ± 0.1 °C
- Body temperature of rats (rats with hyperthermia; rectal, elapsed time 20 minutes (before the injection)): 38.2 ± 0.2 °C
- Body temperature of rats (rats with hyperthermia; rectal, elapsed time 30 minutes (time of intraperitoneal injection, 10 nmol/rat)): 38.8 ± 0.2 °C
- Body temperature of rats (rats with hyperthermia; rectal, elapsed time 40 minutes (10 minutes after 10 nmol/rat i.p.)): 39.2 ± 0.2 °C
- Body temperature of rats (rats with hyperthermia; rectal, elapsed time 50 minutes (20 minutes after 10 nmol/rat i.p.)): 39.7 ± 0.0 °C
- Body temperature of rats (rats with hyperthermia; rectal, elapsed time 60 minutes (30 minutes after 10 nmol/rat i.p.)): 39.9 ± 0.1 °C
- Body temperature of rats (rats with hyperthermia; rectal, elapsed time 70 minutes (40 minutes after 10 nmol/rat i.p.)): 40.0 ± 0.3 °C
- Body temperature of rats (rats with hyperthermia; rectal, elapsed time 80 minutes (50 minutes after 10 nmol/rat i.p.)): 40.2 ± 0.2 °C
- Body temperature of rats (rats with hyperthermia; rectal, elapsed time 90 minutes (60 minutes after 10 nmol/rat i.p.)): 40.0 ± 0.2 °C
- Body temperature of rats (rats with hyperthermia; rectal, elapsed time 100 minutes (70 minutes after 10 nmol/rat i.p.)): 40.1 ± 0.2 °C
- Body temperature of rats (rats with hyperthermia; rectal, elapsed time 110 minutes (80 minutes after 10 nmol/rat i.p.)): 40.3 ± 0.1 °C
- activity to increase the secretion of growth hormone (GH) from the pituitary gland [2]: almost no activity
